The text below walks through data of paper PMC6562704, “Antihypertensive Effect in Vivo of QAGLSPVR and Its Transepithelial Transport Through the Caco-2 Cell Monolayer” (Marine Drugs, 2019).

In data set [1] the test system is Caco-2 cell monolayer. As to conditions: cited from earlier work. The method, then:
QAGLSPVR was proven to produce a clear antihypertensive effect on SHRs in this study. To validate whether QAGLSPVR could be completely absorbed to regulate blood pressure, the transport percentage of QAGLSPVR was evaluated via the Caco-2 cell monolayer model. Caco-2 cells can be used as an in vitro model of the human intestinal epithelium due to the various brush border membrane enzymes characterizing these cells. At least eight membrane enzymes are expressed by Caco-2 cells. The brush border membrane enzymes are membrane peptidases and can hydrolyze peptides into short fragments prior ...

Data set [2] concerns Caco-2 cell monolayer. As to the kind of experiment: Transepithelial transport through the Caco-2 cell monolayer. It is filed as in vitro ADME, human. As to the method:
Caco-2 cells (1 × 10^5 cells/well) were routinely cultured in Dublecco’s modified Eagle’s medium with 15% FBS, […] streptomycin and 100 U/mL penicillin. Caco-2 cell monolayer was cultured in six-well Transwell plastic plates in a humidified incubator with 5% CO2 at 37 °C and Caco-2 cell monolayer can be used to perform transport experiments when the transepithelial resistance is higher than 400 Ω/cm^2 [29]. The Caco-2 cell culture medium was substituted with Hank’s balanced salt solution (HBSS) buffer (preheated at 37 °C for 30 min) prior to the transport experiment. The cell monolayer was cultured in HBSS buffer and maintained at 37 °C for 2 h. QAGLSPVR (2 mg/mL, 1.5 mL, dissolved in HBSS) was added to the AP of the cell monolayer, while HBSS buffer (2.5 mL) was added to the BL. The Caco-2 cell monolayer was cultured for 0.5, 1, or 2 h in an incubator at 37 °C. The AP and BL fractions were collected at different times. QAGLSPVR concentrations in the BL were detected by UPLC-Q-Orbitrap-MS^2 analysis according to our previous method, and the transport percentages of QAGLSPVR at different times were calculated.
The transport patterns of QAGLSPVR through the Caco-2 cell monolayer were studied using different transport inhibitors and enhancers. In brief, Gly-Sar, wortmannin, and cytochalasin D were dissolved in DMSO (final concentration of DMSO in HBSS = 0.05%) and final concentrations of25 mM, 500 nM, and 0.5 μg/mL, respectively. The Caco-2 cell monolayer was pre-incubated with Gly-Sar (a peptide transporter PepT1 substrate), wortmannin (atranscytosis inhibitor), or cytochalasin D (a TJ disruptor)for 30 min followed by addition of 1.5 mL of 2 mg/mL QAGLSPVR to the AP and 2.5 mL of fresh HBSS to the BL. After 2 h of incubation, the QAGLSPVR content in the BL was determined via UPLC-Q-Orbitrap-MS^2 analysis according to our previous method, and transport percentages were calculated.

In data set [3] the target is angiotensin-I-converting enzyme (ACE). The note with it: in vitro; read-out: IC50 for ACEI activity in vitro; cited from earlier work. The source says:
In our previous studies, enzymatic hydrolysates of tilapia skin gelatin were obtained using simulated gastrointestinal digestion. The hydrolysates were isolated and purified, and QAGLSPVR was obtained by successive chromatography of the gelatin hydrolysates. […] The present study aims to confirm the in vivo antihypertensive effect of QAGLSPVR by using the SHR model. […] Bioactive peptides are exposed through systemic circulation in human tissues. Unfortunately, bioactive peptides may be hydrolyzed before they reach the target tissues during passage through and absorption by the small intestine. […] For example, FKGRYYP was identified from ch ...

The test system of the next data set is SHRs. As to conditions: cited from earlier work. The source says: Bioactive peptides are exposed through systemic circulation in human tissues. Unfortunately, bioactive peptides may be hydrolyzed before they reach the target tissues during passage through and absorption by the small intestine. […] For example, FKGRYYP was identified from ch ...

Ends that are not written are not given here.

Consider TNGIIR, for which the “absorption through the Caco-2 cell monolayer (in words)” value in the data set on Caco-2 cell monolayer [1] is “absorbed intact”.

Regarding RKQLQGVN, the “absorption through the Caco-2 cell monolayer (in words)” value in the data set on Caco-2 cell monolayer [1] is reported as “absorbed intact”.

Turning to QAGLSPVR [QAGLSPVR], in the data set with Caco-2 cell monolayer [2] (Caco-2, AP to BL, 30 min pre-incubation with 0.5 μg/mL cytochalasin D (TJ disruptor), 2 mg/mL peptide, HBSS, 2 h, UPLC-Q-Orbitrap-MS^2, p < 0.05), the “effect of cytochalasin D on QAGLSPVR transport (in words)” value was “significantly increased”. The “effect of wortmannin on QAGLSPVR transport (in words)” value in the data set on Caco-2 cell monolayer [2] (Caco-2, AP to BL, 30 min pre-incubation with 500 nM wortmannin (transcytosis inhibitor), 2 mg/mL peptide, HBSS, 2 h, UPLC-Q-Orbitrap-MS^2, p > 0.05) was “did not significantly affect”. The “effect of Gly-Sar on QAGLSPVR transport (in words)” value in the data set with Caco-2 cell monolayer [2] (Caco-2, AP to BL, 30 min pre-incubation with 25 mM Gly-Sar (PepT1 substrate), 2 mg/mL peptide, HBSS, 2 h, UPLC-Q-Orbitrap-MS^2, p > 0.05) is “no significant effect”. Besides, the “integrity on transport through the Caco-2 cell monolayer (in words)” value in the data set with Caco-2 cell monolayer [2] (Caco-2 monolayer, AP to BL, HBSS, 2 mg/mL, 37 °C, 0.5-2 h, UPLC-Q-Orbitrap-MS^2) is “transported intact”. This substance came in with a transport percentage in the data set with Caco-2 cell monolayer [2] (Caco-2 monolayer, AP to BL, six-well Transwell, transepithelial resistance > 400 Ω/cm^2, HBSS, 2 mg/mL peptide (1.5 mL) in AP, 2.5 mL HBSS in BL, 37 °C, 2 h, UPLC-Q-Orbitrap-MS^2, mean ± SD) of 3.5%.

On to QIGLF, for which, in the data set on Caco-2 cell monolayer [1], the “absorption through the Caco-2 cell monolayer (in words)” value is on record as “absorbed intact”.

Take “FKGRYYP [peptide identified from chicken muscle hydrolysates]”: the IC50 in data set [3] is 550 µM. The “antihypertensive activity after oral administration to SHRs (in words)” value in the data set on SHRs is given as “no antihypertensive activity”.

Turning to YLGYLEQ, the “absorption through the Caco-2 cell monolayer (in words)” value in the data set with Caco-2 cell monolayer [1] was “absorbed intact”.
